In brackets after ≈: the same amount, converted by molar mass. Where two headings read alike, the source gives them in different places.
Columns and labels:
[1] = Mouse acute toxicity test; format: in vivo, Male Slc:ddY mice; conditions: intravenous; for survival of mice after administration / acute toxicity: text summary of Table 9; for Mortality (dead/ test) / acute toxicity: mice
Experimental: Mouse Acute Toxicity Test
Male Slc:ddY mice at age of 5-weeks were used as test animals. For dissolving the compounds, 0.1 mol/l NaOH (in saline) was used. Mice were administered intravenously at a rate of 0.1 ml/30 seconds at a dosing volume of 10 ml/kg.

[2] = tested on: Mycobacterium tuberculosis (RFP sensitive); test: Antibacterial activity (MIC) against Mycobacterium tuberculosis (RFP sensitive); format: cell-based; conditions: Mycobacterium tuberculosis, Table 5, read-out: MIC
[3] = tested on: M. avium; test: Antibacterial activity (MIC) against M. avium; format: cell-based, Mycobacterium avium; conditions: Mycobacterium avium, Table 3, read-out: MIC
Experimental: Antibacterial activity of the compounds of the invention was measured in accordance with the method described in the literature of Antimicrob. […] In the tables, “OFLX” is an abbreviation of “OFLOXAIN”.

[4] = tested on: reticulocytes (RC); test: Peripheral blood micronucleus test; format: in vivo, Male Slc:ddY mice; conditions: mice, intravenous; for MNRC (%) mean ±S.E. 24 hours: 24 hours after administration; for MNRC (%) mean ±S.E. 48 hours: 48 hours after administration; for micronucleus induction: (untreated control: 0.12±0.08)
Experimental: Peripheral Blood Micronucleus Test
Used animals and administration method are similar to those in the mouse acute toxicity test. Samples were prepared by collecting 5 μl each of blood sample from the tail vein at 24 and 48 hours after the administration, dropping the blood on a slide at which 0.1% acridine orange solution had been applied in advance, sealing the slide with a cover glass immediately, and allowing it to stand in a refrigerator for 24 hours.

[5] = tested on: M. intracellulare; test: Antibacterial activity (MIC) against M. intracellulare; format: cell-based, Mycobacterium intracellulare; conditions: Table 3
Experimental: Antibacterial activity of the compounds of the invention was measured in accordance with the method described in the literature of Antimicrob. Agents and Chemother., 38, 2877 (1994), and the results are shown in Tables 3 to 8 in terms of MIC (μg/ml). In the tables, “OFLX” is an abbreviation of “OFLOXAIN”.

Structure (SMILES): COc1c(N2CCN(C)CC2)c(F)cc2c(=O)c(C(=O)O)cn([C@@H]3C[C@@H]3F)c12 [Compd. 15, 6-Fluoro-1-[2-(S)-fluoro-1-(R)-cyclopropyl]-1,4-dihydro-8-methoxy-7-(4-methylpiperazin-1-yl)-4-oxoquinoline-3-carboxylic acid]
- survival of mice after administration [1]: all mice were survived
- Mortality (dead/ test) ([1]; 50 mg/kg): 0/5
- acute toxicity [1]: relatively weak
- MIC ([2]; H37RV, M. tuberculosis H37Rv): 0.1 µg/mL (≈ 0.254 µM)
- MIC ([2]; M. tuberculosis Kurono): 0.05 µg/mL (≈ 0.127 µM)
- MIC ([2]; M. tuberculosis No. 40): 0.05 µg/mL (≈ 0.127 µM)
- MIC ([2]; M. tuberculosis No. 41): 0.025 µg/mL (≈ 0.0636 µM)
- MIC ([2]; M. tuberculosis No. 43): 0.39 µg/mL (≈ 0.991 µM)
- MIC ([2]; M. tuberculosis No. 68): 0.1 µg/mL (≈ 0.254 µM)
- MIC ([3]; M. avium N-357): 0.39 µg/mL (≈ 0.991 µM)
- MIC ([3]; M. avium N-444): 0.78 µg/mL (≈ 1.98 µM)
- MIC ([3]; M. avium N-458): 0.2 µg/mL (≈ 0.508 µM)
- MIC ([3]; M. avium N-472): 1.56 µg/mL (≈ 3.97 µM)
- MNRC (%) mean ±S.E. 24 hours ([4]; 50 mg/kg): 0.20 ± 0.04%
- MNRC (%) mean ±S.E. 48 hours ([4]; 50 mg/kg): 0.14 ± 0.04%
- micronucleus induction [4]: weak
- MIC ([5]; M. intracellulare N-338): 1.56 µg/mL (≈ 3.97 µM)
- MIC ([5]; Mycobacterium intracellulare, M. intracellulare N-313, read-out: MIC): 0.39 µg/mL (≈ 0.991 µM)
- MIC ([5]; Mycobacterium intracellulare, M. intracellulare N-345, read-out: MIC): 3.13 µg/mL (≈ 7.96 µM)
- MIC ([5]; Mycobacterium intracellulare, M. intracellulare N-294, read-out: MIC): 1.56 µg/mL (≈ 3.97 µM)

Structure (SMILES): COc1c(N2CCNC(CF)C2)c(F)cc2c(=O)c(C(=O)O)cn([C@@H]3C[C@@H]3F)c12 (stereo partly drawn) [Compd. 19, 6-Fluoro-1-[(1R,2S)-2-fluorocyclopropyl]-7-(3-fluoromethylpiperazin-1-yl)-1,4-dihydro-8-methoxy-4-oxoquinoline-3-carboxylic acid]
- melting point: 153 to 156 °C

Structure (SMILES): COc1c(N2CCNC3(CC3)C2)c(F)cc2c(=O)c(C(=O)O)cn([C@@H]3C[C@@H]3F)c12 [Compd. 22, 7-{4,7-Diazaspiro[2.5]octan-7-yl}-6-fluoro-1-[(1R,2S)-2-fluorocyclopropyl]-1,4-dihydro-8-methoxy-4-oxoquinoline-3-carboxylic acid]
- melting point: 164 to 167 °C (dec.)

Structure (SMILES): COCC1CN(c2c(F)cc3c(=O)c(C(=O)O)cn([C@@H]4C[C@@H]4F)c3c2OC)CCN1 (stereo partly drawn) [Compd. 21, 6-Fluoro-1-[(1R,2S)-2-fluorocyclopropyl]-1,4-dihydro-8-methoxy-7-(3-methoxymethylpiperazin-1-yl)-4-oxoquinoline-3-carboxylic acid]
- melting point: 92 to 95 °C

Structure (SMILES): COc1c(C2CNC3(CCC3)CN2)c(F)cc2c(=O)c(C(=O)O)cn([C@@H]3C[C@@H]3F)c12 (stereo partly drawn) [Compd. 23, 7-{5,8-Diazaspiro[3.5]nonan-7-yl}-6-fluoro-1-[(1R,2S)-2-fluorocyclopropyl]-1,4-dihydro-8-methoxy-4-oxoquinoline-3-carboxylic acid]
- melting point: 138 to 140 °C (dec.)

Structure (SMILES): C[C@H]1COc2c(N3CCN[C@@H](c4ccccc4)C3)c(F)cc3c(=O)c(C(=O)O)cn1c23 [Compd. 27, 9-Fluoro-2,3-dihydro-3-(S)-methyl-7-oxo-10-[3-(S)-phenyl-1-piperazinyl]-7H-pyrido[1.2.3-de][1,4]benzoxazine-6-carboxylic acid]
- survival of mice after administration [1]: all mice were survived
- Mortality (dead/ test) ([1]; 100 mg/kg): 0/5
- acute toxicity [1]: relatively weak
- MNRC (%) mean ±S.E. 24 hours ([4]; 100 mg/kg): 0.20 ± 0.03%
- MNRC (%) mean ±S.E. 48 hours ([4]; 100 mg/kg): 0.18 ± 0.04%
- micronucleus induction [4]: weak
